Measured values from patent US12350250B2, “Aggrelytes for treating ocular conditions” (The Regents of the University of Colorado, a Body Corporate, priority 2022, dated 2025).

Legend:
αA-crystallin (αAC) = molecular target: T1, αA-crystallin (αAC) (Homo sapiens, UniProt P02489); assay: Relative protein acetylation capability on recombinant αAC; format: biochemical; settings: 500 μM acetylating agent, αAC 3 mg/mL, 24 hours, 37° C.
T1 sequence (P02489 1-173): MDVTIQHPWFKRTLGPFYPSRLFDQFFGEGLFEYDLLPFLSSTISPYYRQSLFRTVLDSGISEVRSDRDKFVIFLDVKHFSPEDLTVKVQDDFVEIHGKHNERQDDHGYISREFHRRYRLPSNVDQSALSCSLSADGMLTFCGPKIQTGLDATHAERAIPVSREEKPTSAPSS
Procedure: The relative ability of Aggrelyte-2 to acetylate lysine residues in proteins was investigated using αA-crystallin (αAC). Human recombinant αAC (3 mg/mL PBS) was incubated in 50 mM sodium phosphate buffer, pH 7.4, for 24 hours at 37° C. while shaking without or with 500 μM acetylating agent (Aggrelyte-2, acetyl-CoA, acetic anhydride, or aspirin), dialyzed against PBS for 24 hours at 4° C.

WI proteins (human lens) = assay: Relationship between protein acetylation and solubility: WI proteins treated with acetic anhydride or Aggrelyte-2; format: biochemical
Description: To determine whether protein acetylation alone contributed to lens protein solubility, the soluble protein levels in WI proteins treated with acetic anhydride and Aggrelyte-2 were compared.

mouse lenses [1] = assay: Stiffness of ex vivo mouse lenses (Example 18); parameters: species or system mouse (C57BL/6J); settings: 1 mM, 24 hours, ex vivo mouse lenses (3-6 months old); not significant
Procedure: In this example, the lenses were dissected from the eyes of mice (C57BL/6J, 3-6 months old, Jackson Laboratories, Stock No. 000664) by a posterior approach and incubated without (“Control”) or with Aggrelyte-2 or Aggrelyte-2A (1 mM) for 24 hours in serum-free and phenol-red-free MEM (297 mOsm) at 37° C. Lens stiffness was measured as in Example 10, except that the load was applied at 50 mg increments.

mouse lenses [2] = assay: Acetylated proteins in ex vivo treated mouse lenses (Western blot, Example 19); settings: 1 mM, 24 hours
Procedure: The lenses from Example 18 were homogenized using N2-bubbled 50 mM phosphate buffer, pH 7.4 (0.4 mL per lens), in a hand-held motorized homogenizer. The homogenate was centrifuged at 20,000×g for 20 minutes at 4° C. The resulting supernatant was collected, and its protein content was measured using BCA Protein Assay Kit using BSA as the standard. The soluble protein was subjected to 12% SDS-PAGE under denaturing conditions and the proteins were electrophoretically transferred to a nitrocellulose membrane and blocked with 5% nonfat dry milk. The membrane was then incubated with a monoclonal antibody against N-acetyllysine (AcK antibody @ 1:5,000 dilution; Cell Signaling Technology Catalog #9681S) for 16 hours, followed by horseradish peroxidase (HRP)-conjugated goat anti-mouse IgG (1:5,000 dilution; Cell Signaling Technology Catalog #7076S) for 1 hour. Chemiluminescence was detected using the Enhanced Chemiluminescence Detection Kit. The membrane was stained with Ponceau-S to visualize the proteins and normalize acetyllysine (AcK)-bearing protein to total protein load.

human lenses [3] = assay: Stiffness of ex vivo human lenses (Example 22); settings: 250 μM, 48 hours
Procedure: To test the effects of Aggrelyte-2 and Aggrelyte-2A on human lenses (age: 47-67 years), lenses were incubated in media containing freshly dissolved aggrelyte (250 μM) for 48 hours, with aggrelyte replacement after 24 hours. One lens from each donor pair was treated with aggrelyte, while the other was used as the control. After incubation, lens stiffness was measured, as described above in Example 20.

human lenses [4] = assay: Acetylated proteins in ex vivo treated human lenses (Example 23); settings: 250 μM, 48 hours
Procedure: Each lens from Example 21 was decapsulated and homogenized in N2-bubbled 50 mM phosphate buffer, pH 7.4 (1.5 mL per lens), in a hand-held glass homogenizer. The sample was processed and evaluated for protein content as described in Example 19.

mouse lenses [5] = settings: 40 mM topical twice daily for four weeks, mice
Procedure: A 40 mM solution of Aggrelyte-2A was prepared in a liquid formulation that consisted of benzalkonium chloride (0.001%), NaH2PO4·H2O (0.269%), Na2HPO4 (0.433%), hypromellose (0.2%), and NaCl (0.5%). Aggrelyte-2A in the formulation (5 μl) was applied to the right eye twice daily (8 AM and 4 PM) to unanesthetized animals for four weeks. The left eye received only the formulation (5 μl) (“Vehicle” or “Control”). After treatment, the animals were euthanized by CO2 asphyxiation. The eyes were enucleated, and the lenses were removed immediately by a posterior approach and placed in fresh PBS. The stiffness of the lenses was measured using a computer-controlled lens squeezer. The AcK-bearing protein levels of the lenses were measured by Western blotting. The protein-thiol content of the lenses was measured using a Thiol Quantification Assay Kit from Abcam, using reduced GSH as the standard.

CC(=O)SCCNC(=O)CCNC(=O)[C@H](O)C(C)(C)COP(=O)(O)OP(=O)(O)OC[C@H]1O[C@@H](n2cnc3c(N)ncnc32)[C@H](O)[C@@H]1OP(=O)(O)O [acetyl-CoA]
rank order of acetylating agents (αA-crystallin (αAC)): followed by Aggrelyte-2, aspirin, and acetyl-CoA

CC(=O)OC(C)=O [acetic anhydride]
acetylating potency, fold higher than Aggrelyte-2 (αA-crystallin (αAC)): ~21 fold
rank order of acetylating agents (αA-crystallin (αAC)): most potent acetylating agent
acetylation of WI proteins, comparison (WI proteins (human lens)): better acetylating agent than Aggrelyte-2

CC(=O)Oc1ccccc1C(=O)O [aspirin]
rank order of acetylating agents (αA-crystallin (αAC)): followed by Aggrelyte-2, aspirin, and acetyl-CoA

COC(=O)[C@H](CSC(C)=O)NC(=O)CC(C)(C)C [Aggrelyte-2A, methyl S-acetyl-N-(3,3,-dimethylbutanoyl)-L-cysteinate]
reduction of lens stiffness (mouse lenses [1]): approximately 20%
density of acetyl-bearing proteins, % increase compared to Aggrelyte-2 (mouse lenses [2]): at least 50%
density of acetyl-bearing proteins, fold increase compared to untreated control lenses (mouse lenses [2]): 5 fold
reduction of lens stiffness compared to vehicle-treated lenses (human lenses [3]; ex vivo human lenses (47-67 years)): approximately 15%
significance of stiffness reduction at 2000-mg load (human lenses [3]; ex vivo human lenses, 2000-mg load (p<0.05)): significant
increase in density of acetyl-bearing proteins compared to control lenses (human lenses [4]): approximately 5%
increase in protein thiol content compared to vehicle-treated lenses (mouse lenses [5]): approximately 8%
reduction of lens stiffness compared to vehicle-treated lenses (mouse lenses [5]; 200-mg load): approximately 12%
increase in density of AcK-bearing proteins compared to vehicle-treated lenses (mouse lenses [5]; Western blot): approximately 10%
reduction in stiffness at 400- and 500-mg loads (mouse lenses [5]; relative to 200-mg load result): similar
